What was measured:
[1] = test system: Inositol polyphosphate kinase-like protein (IPPK); test: SILAC pull-down with resin-bound 13, competition by compound 2; assay type: binding, Trypanosoma brucei; conditions: procyclic lysate; compound 2 10 μM vs DMSO; mean of three experiments
Procedure: (§1) Chemical proteomic studies were carried out by immobilizing an analogue of compound 2 (probe 13; Figure 3A and Scheme 4) to magnetic beads via a polyethyleneglycol (PEG) linker. Appropriate attachment sites for the PEG linker were informed by the established structure–activity relationships within this series, and an advanced intermediate toward the final derivatized compound was screened against both bloodstream and procyclic forms of T. brucei to ensure that it retained potency. The analogue was immobilized by attachment to NHS-ester-activated paramagnetic beads. Activated beads were then incubated in SILAC (stable isotope labeling by amino acids in cell culture)-labeled T. brucei procyclic whole-cell lysates in the presence or absence of compound 2 (10 μM) with either “light-“ or “heavy”-labeled lysate. After combining the eluates from the beads and performing proteomic analyses, proteins that bound specifically to the diaminothiazole pharmacophore were distinguished from proteins that bound non-specifically to the beads by virtue of compound 2:DMSO tryptic peptide isotope ratios. As a result of these studies, four kinases and a cyclin were identified as specific binders of the compound 2-derivatized beads (Figure 3B and Table S11). It should be noted that of the four kinases identified, only CRK12 has been established as essential for survival of T. brucei.[14] […]
(§2) Trypanosoma brucei procyclic form parasites were grown in SDM-79 media (SILAC SDM-79, 2 g/L NaHCO3, 7.5 mg haemin, 1% glutamax and 15% dialysed FBS) with either light or heavy isotopes for 6-9 divisions (6 days) to a density of ~3 x 10^7 cells/ml. A total of 3 x10^8 cells were washed thrice with PBS. Buffer 1 (0.1 mM tosyl phenylalanyl chloromethyl ketone, 1 µg/ml leupeptin, 1 mM aprotinin, 1 mM phenylmethylsulfonyl fluoride, 1x Roche Complete protease inhibitors) was added to the parasite pellet, followed by Buffer 2 (100 mM Tris pH 7.5, 10% glycerol, 300 mM NaCl, 3 mM MgCl2, 1.6% IGEPAL® CA-630, 2 mM dithiothreitol) and incubated at 4 °C for 20 min. Lysates were centrifuged at 100,000 g at 4 °C for 1 h. Beads (blank and compound-bound) were washed twice with water and twice with lysis buffer (Buffer 1 and 2). Lysates were incubated with 2 mg blank beads for 30 min at 4 °C. Lysates were then incubated with either 10 µM DDD00770675 or 1% DMSO for 30 min at 4 °C. Finally, lysates were incubated with 2 mg of bound compound for 1 h at 4 °C. Beads were washed three times with wash buffer (0.5% IGEPAL® CA-630, 50 mM Tris pH 8.0, 5 mM EDTA, 1 mg/ml BSA) and twice with Tris-buffered saline. Samples were combined, run 1.5 cm into a Brs-TRIS 10% acrylamide gel and stained with Coomassie quick reagent for 1 h. Gel bands were subjected to in-gel reduction with 10 mM dithiothreitol, alkylation with 50 mM iodoacetamide and digestion with 12.5 μg/mL trypsin (Pierce) for >16h at 37°C. Recovered tryptic peptides were vacuum […]
(§3) 4.5 Peptide fractionation and LC-MS/MS analysis
(§4) Peptides were fractionated using High pH RP Chromatography. A C18 Column from Waters (XBridge peptide BEH, 130Å, 3.5 µm 2.1 x 150 mm, Waters, Ireland) with a guard column (XBridge, C18, 3.5 µm, 2.1 ×10 mm, Waters) were used on a Ultimate 3000 HPLC (Thermo-Scientific). Buffers A and B used for fractionation consist, respectively, of (A) 10mM ammonium formate in milliQ water pH 9.5 and (B) 10 mM ammonium formate, pH 9.5 in 90% acetonitrile. Fractions were collected using a WPS-3000FC auto-sampler (Thermo-Scientific) at 1 min intervals. Column and guard column were equilibrated with 2% Buffer B for twenty minutes at a constant flow rate of 0.2 mL/min. Peptides (190 µL) were injected onto the column, and the separation gradient was started 1 min after sample was loaded onto the column. Peptides were eluted from the column with a gradient of 2% Buffer B to 60% Buffer B in 53 min. The column was washed for 15 min in 100% Buffer B and equilibrated at […]
(§5) 2% Buffer B for 20 min. […]

[2] = test system: MAP kinase 9, putative (MAPK9); test: as above; assay type: binding, Trypanosoma brucei; conditions: procyclic lysate; compound 2 10 μM vs DMSO; mean of three experiments
Procedure: as §1, §2, §3, §4, §5

[3] = test system: Cdc-2 related kinase 11 (CRK11); test: as above; assay type: binding, Trypanosoma brucei; conditions: procyclic lysate; compound 2 10 μM vs DMSO; mean of three experiments
Procedure: as §1, §2, §3, §4, §5

[4] = test system: MAP kinase 4 (MAPK4); test: as above; assay type: binding, Trypanosoma brucei; conditions: procyclic lysate; compound 2 10 μM vs DMSO; mean of three experiments
Procedure: as §1, §2, §3, §4, §5

[5] = test system: MAP kinase 6 (MAPK6); test: as above; assay type: binding, Trypanosoma brucei; conditions: procyclic lysate; compound 2 10 μM vs DMSO; mean of three experiments
Procedure: as §1, §2, §3, §4, §5

[6] = test system: Cyclin 9 (CYC9); test: as above; assay type: binding, Trypanosoma brucei; conditions: procyclic lysate; compound 2 10 μM vs DMSO; mean of three experiments
Procedure: as §1, §2, §3, §4, §5

[7] = test system: Cdc2-related kinase 12 (CRK12); test: as above; assay type: binding, Trypanosoma brucei; conditions: procyclic lysate; compound 2 10 μM vs DMSO; mean of three experiments
Procedure: as §1, §2, §3, §4, §5

[8] = Bovine hepatocyte stability; assay type: in vitro ADME; conditions: intrinsic clearance
Procedure: collagen coated cell culture plates for 10 minutes at 37 °C, 5% CO2. Upon addition of an equal volume of supplemented WME containing 1 µM test compound, an aliquot of incubation solution was removed to acetonitrile containing internal standard (final concentration 0.5 µM test compound and a cell density of 0.25 million cells/mL). Similarly, aliquots were removed at 3, 6, 9, 15, 30, 45, 60, 90 and 120 min. 100 µL of 80:20 water:acetonitrile was added to all samples and the analysis plate was centrifuged (10 min, 1,665 g, RT) prior to injection and analysis of samples by UPLC-MS/MS. The response (area ratio of test compound relative to internal standard) was plotted against time using an exponential decay model and rate of disappearance calculated. Hepatocyte CLint (mL/min/10^6 cells) was scaled to in vivo CLint (ml/min/g Liver) using the hepato-cellularity scaling factor of 120 x […]
(b) Bovine hepatocyte stability. Freshly isolated female bovine (Prim’Holstein) hepatocytes were supplied by Biopredic InternationalTM. […]
of 80:20 water:acetonitrile was added to all samples and the analysis plate was centrifuged (10 min, 1,665 g, RT) prior to injection and analysis of samples by UPLC-MS/MS. The response (area ratio of test compound to internal standard) was plotted against time using an exponential decay model and rate of disappearance calculated. […]

Row | Compound | Log2 ratio DMSO/compound [1] | Log2 ratio DMSO/compound [2] | Log2 ratio DMSO/compound [3] | Log2 ratio DMSO/compound [4] | Log2 ratio DMSO/compound [5] | Log2 ratio DMSO/compound [6] | Log2 ratio DMSO/compound [7] | Bovine Hepatocyte Cli [8]
1 | CC(C)CS(=O)(=O)N[C@H]1CC[C@H](Nc2nc(N)c(C(=O)c3c(F)cc(CN(C)C)cc3F)s2)CC1 [Compound 2, N-(trans)-[4-[[4-Amino-5-[4-(dimethylaminomethyl)-2,6-difluoro-benzoyl]thiazol-2-yl]amino]cyclohexyl]-2-methyl-propane-1-sulfonamide] | 1.85 | 4.15 | 3.57 | 2.84 | 1.62 | 3.16 | 3.47 | –
2 | CC(C)CS(=O)(=O)N[C@H]1CC[C@H](Nc2nc(N)c(C(=O)c3c(F)cccc3F)s2)CC1 [Compound 1, N-((trans)-4-((4-Amino-5-(2,6-difluorobenzoyl)thiazol-2-yl)amino)cyclohexyl)-2-methylpropane-1-sulfonamide] | – | – | – | – | – | – | – | <0.5 / 0.5 mL/min/g

— PMC9014415, “Repositioning of a Diaminothiazole Series Confirmed to Target the Cyclin-Dependent Kinase CRK12 for Use in the Treatment of African Animal Trypanosomiasis” (Journal of Medicinal Chemistry, 2022)
